We go through 14 compounds from patent publication US20180346505A1, “MONONUCLEOTIDES HAVING A BIOREVERSIBLE DISULFIDE GROUP” (priority 2014, published 2018).

SMILES strings stand for the structures. Where two headings read alike, the source gives them in different places.

For data set [1], the system named is GT1b (Con1) HCV replicon. In words: HCV replicon assay, wild type GT1b (Con1), luciferase based, stable format. Type of data set: cell-based, hepatitis C virus. As to conditions: Huh-7 cells. The method, then:
(§1) The antiviral activity of the test compounds was assessed in the wild type GT1b (Con1), GT1a (H77), and GT1b/2a, GT1b/3a, GT1b/4a and GT1b/5a NS5B chimeric replicons, as well as the NS5B mutant replicons listed in Table 2a and 2b.
(§2) All the replicon assays were luciferase based in Huh-7 cells, either in stable format (GT1b and GT1a) or by transient transfection by electroporation (chimeric and mutant replicons). For a standard HCV replicon assay, stable or transiently transfected Huh-7 cells were seeded in 96-well plates (5,000 cells/well), cultured in DMEM containing 10% FBS, and incubated at 37° C., 5% CO2. On the following day, test compounds were diluted with assay media and added to the appropriate wells (final DMSO concentration in the cell culture medium was 0.5%). Assay reference positive control was included in each run to ensure assay performance. Cells were incubated at 37° C., 5% CO2 for 72 hours, at which time the cells were still sub-confluent. The antiviral activity was determined by measuring replicon reporter firefly luciferase activity using Bright Glo kit in accordance with the protocol provided by the supplier (Promega). The toxicity of the test compounds was assessed by CytoTox-1 cell proliferation assay (Promega). The half maximal effective concentration (EC50) and the half maximal toxic concentration (TC50) values were calculated using the GraphPad Prism software.
A general note: A replicon is a self-replicating genome or part of one, used to study replication in cells.

In data set [2] the test system is GT1b/3a NS5B chimeric replicon. Put plainly: HCV replicon assay, GT1b/3a NS5B chimeric replicon, transient transfection. Type of data set: cell-based, hepatitis C virus. On the procedure:
as §1
(§3) To generate HCV NS5B chimeric replicons, the GT1 b replicon was used as a backbone with the NS5B gene replaced with the NS5B gene of GT2a, GT3a, GT4a and GT5a derived from clinical isolates. These NS5B genes were cloned into the GT1b backbone and were confirmed by sequencing.
as §2

For data set [3], the system named is Huh-7 cells. In words: Toxicity by CytoTox-1 cell proliferation assay (TC50) and selectivity index. As to conditions: TC50 by CytoTox-1 cell proliferation assay over replicon EC50, Huh-7 cells. The class given is cell-based. On the procedure:
as §2

For data set [4], the system named is GT1b/4a NS5B chimeric replicon. Put plainly: HCV replicon assay, GT1b/4a NS5B chimeric replicon, transient transfection. As to conditions: read-out: GT4a EC50; GT1b/4a NS5B chimeric replicon, Huh-7 cells, luciferase, 72 hours. The class given is cell-based, hepatitis C virus. The method, then: as §1, §3, §2
The subject of data set [5] is GT1a (H77) HCV replicon. Put plainly: HCV replicon assay, wild type GT1a (H77), luciferase based, stable format. Type of data set: cell-based, hepatitis C virus. The following applies: Huh-7 cells, 72 hours. On the procedure:
as §1, §2

In data set [6] the test system is GT1b/5a NS5B chimeric replicon. Put plainly: HCV replicon assay, GT1b/5a NS5B chimeric replicon, transient transfection. Type of data set: cell-based, hepatitis C virus. The following applies: read-out: GT5a EC50; GT1b/5a NS5B chimeric replicon, Huh-7 cells, luciferase, 72 hours. The method, then:
as §1, §3, §2

Data set [7] concerns GT1b/2a NS5B chimeric replicon. In words: HCV replicon assay, GT1b/2a NS5B chimeric replicon, transient transfection. Type of data set: cell-based, hepatitis C virus. The following applies: read-out: GT2a EC50; GT1b/2a NS5B chimeric replicon, Huh-7 cells, luciferase, 72 hours. On the procedure: as §1, §3, §2
A short description of data set [8]: Nucleoside phosphoester stability in simulated gastric fluid. Type of data set: in vitro ADME. The following applies: simulated gastric fluid pH 1.2, 2 μM, 37° C. The method, then:
Test compounds at 2 μM were incubated at 37° C. with simulated gastric fluid (SGF, 0.2% (w/v) sodium chloride in 0.7% (v/v) hydrochloric acid, deionized water, 0.3% pepsin (w/v), pH 1.2). Duplicate samples were used. Samples were removed at 0, 15, 30, 60, 120, 360 and 1440 min, immediately mixed with cold acetonitrile containing internal standard (IS), and stored at −80° C. before analysis. Omeprazole was used as a positive control. Samples were analyzed by LC/MS/MS method, and disappearance of test compound was assessed by comparison of peak area ratios of analyte/IS and reported as % test compound remaining at each time point.

Data set [9] in a line: Nucleoside phosphoester stability in simulated intestinal fluid. Type of data set: in vitro ADME. On the procedure:
Test compounds at 2 μM were incubated at 37° C. with simulated intestinal fluid (SIF), which contains 0.68% (w/v) monobasic potassium phosphate and 1% (w/v) pancreatin in ultra-pure water (pH 6.8). Duplicate samples were used. Samples were removed at 0, 15, 30, 60, 120, 360 and 1440 min, immediately mixed with cold acetonitrile containing an internal standard (IS), and stored at −80° C. before analysis. Chlorambucil was used as a positive control. Samples were analyzed by a LC/MS/MS method, and disappearance of test compound was assessed by comparison of peak area ratios of analyte/IS and reported as % test compound remaining at each time point.

The mark [10] stands for this setting: Hepatitis C virus, GT1B, Huh-7, 72 h.
Setting [11] is: Hepatitis C virus, Huh-7, 72 h, read-out: GT3a EC50, GT1b/3a NS5B chimeric replicon, Huh-7 cells, luciferase, 72 hours.
Where [12] appears, read: read-out: GT3a EC50, GT1b/3a NS5B chimeric replicon, Huh-7 cells, luciferase, 72 hours.

As for `CC(C)(C)SSc1ccccc1CCOP1(=O)OC[C@H]2O[C@@H](n3cnc4c(N)nc(N)nc43)[C@](C)(O)[C@@H]2O1` (single isomer, unassigned) [Compound 16A], the EC50 in data set [1] (setting [10]) was 20 nM; in data set [2] (setting [11]) it was 6 nM. For the same compound, the “Selectivity Index (TC50/EC50)” value in data set [3] is greater than 500.
On to `CC(C)(C)SSc1ccccc1CCOP1(=O)OC[C@H]2O[C@@H](n3ccc(N)nc3=O)[C@](C)(N)[C@@H]2O1` (single isomer, unassigned) [Compound 19A], for which the EC50 in [1] (72 hours) came to 177 nM; in data set [2] (setting [12]), 228 nM; in data set [4], 77 nM; in [5], 169 nM; in [6], 288 nM; in data set [7], 151 nM.
As to `CC(C)(C)SSc1ccccc1CCOP1(=O)OC[C@H]2O[C@@H](n3ccc(N)nc3=O)[C@](C)(F)[C@@H]2O1` (single isomer, unassigned) [Compound 9B], the values for the EC50 in data set [1] (72 hours) and in data set [2] (setting [12]) were 13 nM and 29 nM, respectively. Also, the “% Remaining” value is reported as 100.00% in data set [8] (0 min); 95.72% in data set [8] (15 min); 98.51% in data set [8] (30 min); 100.39% in data set [8] (60 min); 92.48% in [8] (120 min); 65.99% in data set [8] (360 min). In addition, the “% Remaining” value is reported as 21.04% in [8] (1440 min); 100.00% in [9] (simulated gi fluid, 0 h, 2 μM, pH 6.8); 98.51% in data set [9] (simulated gi fluid, 0.25 h, 2 μM, pH 6.8); 91.63% in data set [9] (simulated gi fluid, 0.5 h, 2 μM, pH 6.8); 99.30% in data set [9] (simulated gi fluid, 1 h, 2 μM, pH 6.8); 97.42% in data set [9] (simulated gi fluid, 2 h, 2 μM, pH 6.8). The “% Remaining” value was 72.51% in data set [9] (simulated gi fluid, 6 h, 2 μM, pH 6.8) and 33.69% in [9] (simulated gi fluid, 24 h, 2 μM, pH 6.8). The “Selectivity Index (TC50/EC50)” value in data set [3] is given as greater than 500.
For the compound `CC(C)(C)SSc1ccccc1CCOP1(=O)OC[C@H]2O[C@@H](n3ccc(N)nc3=O)[C@](C)(N)[C@@H]2O1` (single isomer, unassigned) [Compound 19B], the EC50 in data set [1] (72 hours) is 1030 nM; in data set [2] (setting [12]), 1340 nM; in [4], 344 nM; in data set [5], 858 nM; in [6], 1350 nM; in [7], 780 nM.
Compound `CC(C)(CCO)SSc1ccccc1CCOP1(=O)OC[C@H]2O[C@@H](n3ccc(=O)[nH]c3=O)[C@](C)(F)[C@@H]2O1` (stereo partly shown) [Compound 18A] returned an EC50 in data set [1] (setting [10]) of 50 nM. Also, the “Selectivity Index (TC50/EC50)” value in data set [3] is given as greater than 200.
Consider `CC(C)(C)SSc1ccccc1CCOP1(=O)OC[C@H]2O[C@@H](n3ccc(N)nc3=O)[C@](C)(O)[C@@H]2O1` (single isomer, unassigned) [Compound 10B], for which the EC50 in [1] (72 hours) and in data set [2] (setting [12]) was 21 nM each time. The “Selectivity Index (TC50/EC50)” value in [3] was greater than 500.
In [1] (72 hours), `CC(C)(C)SSCCCCOP1(=O)OC[C@H]2O[C@@H](n3ccc(=O)[nH]c3=O)[C@](C)(F)[C@@H]2O1` (single isomer, unassigned) [Compound 6B] displayed an EC50 of 730 nM. Besides, in data set [3], the “Selectivity Index (TC50/EC50)” value is recorded as greater than 14.
For `CC(C)(C)SSc1ccccc1CCOP1(=O)OC[C@H]2O[C@@H](n3ccc(=O)[nH]c3=O)[C@](C)(O)[C@@H]2O1` (stereo partly shown) [Compound 8A], the EC50 in data set [1] (setting [10]) was 10 nM; in data set [2] (setting [11]) it was 6 nM. For the same compound, the “Selectivity Index (TC50/EC50)” value in [3] is on record as greater than 500.
Consider `CC(C)(C)SSc1ccccc1CCOP1(=O)OC[C@H]2O[C@@H](n3cnc4c(N)nc(N)nc43)[C@](C)(O)[C@@H]2O1` (single isomer, unassigned) [Compound 16B], for which the EC50 in data set [1] (72 hours) stood at 40 nM; in data set [2] (setting [12]) it was 5 nM. The “Selectivity Index (TC50/EC50)” value in [3] is greater than 250.
The compound `CC(C)(C)SSCCCCOP1(=O)OC[C@H]2O[C@@H](n3ccc(=O)[nH]c3=O)[C@](C)(F)[C@@H]2O1` (single isomer, unassigned) [Compound 6A] yielded an EC50 in [1] (setting [10]) of 840 nM. Also, the “Selectivity Index (TC50/EC50)” value in data set [3] is on record as greater than 12.
With `O=C(O)CCCc1ccc(N(CCCl)CCCl)cc1` [Chlorambucil, reference compound], the “% Remaining” value in data set [9] (simulated intestinal fluid pH 6.8, 2 μM, 37° C., 0 min) is given as 100.00%; in data set [9] (simulated intestinal fluid pH 6.8, 2 μM, 37° C., 15 min) it was 81.31%; in data set [9] (simulated intestinal fluid pH 6.8, 2 μM, 37° C., 30 min), 64.39%; in data set [9] (simulated intestinal fluid pH 6.8, 2 μM, 37° C., 60 min), 34.82%; in data set [9] (simulated intestinal fluid pH 6.8, 2 μM, 37° C., 120 min), 5.08%; in data set [9] (simulated intestinal fluid pH 6.8, 2 μM, 37° C., 360 min) it was 0.00%. For the same compound, in data set [9] (simulated intestinal fluid pH 6.8, 2 μM, 37° C., 1440 min), the “% Remaining” value is 0.00%.
On to `COc1ccc2[nH]c([S+]([O-])Cc3ncc(C)c(OC)c3C)nc2c1` (stereo not shown) [Omeprazole, reference compound], for which the “% Remaining” value is 100.00% in data set [8] (0 min); 79.48% in [8] (15 min); 66.64% in data set [8] (30 min); 34.79% in data set [8] (60 min); 33.00% in data set [8] (120 min); 6.17% in [8] (360 min). Moreover, the “% Remaining” value in [8] (1440 min) was 1.24%.
As for `CC(C)(C)SSc1ccccc1CCOP1(=O)OC[C@H]2O[C@@H](n3ccc(=O)[nH]c3=O)[C@](C)(F)[C@@H]2O1` (stereo partly shown) [Compound 7B], the EC50 in [1] (setting [10]) worked out at 20 nM; in [2] (setting [11]), 14 nM. In addition, the “Selectivity Index (TC50/EC50)” value in [3] is greater than 500.
For `CC(C)(C)SSc1ccccc1CCOP1(=O)OC[C@H]2O[C@@H](n3ccc(N)nc3=O)[C@](C)(O)[C@@H]2O1` (single isomer, unassigned) [Compound 10A] the same measures were 40 nM, 41 nM and greater than 500.
